Results published in patent publication US20230265068A1, “TRANSIENT RECEPTOR POTENTIAL CANONICAL 3 INHIBITORS AND METHODS OF USE THEREOF” (University of Tennessee Research Foundation, priority 2020, published 2023).

Tests used:
[1] = maximum tolerated dose / in vivo toxicity study in mice; settings: mouse, in vivo
Protocol: The in vivo study was performed in compliance with the NIH Animal Use Guidelines and protocol approved by the Institutional Animal Care and Use Committee (IACUC) at the University of Tennessee Health Science Center (UTHSC, Memphis, Tenn.). NSG mice at 8 weeks (n=2) and ICR mice at 12 weeks (n=3) were housed with a 12:12-hour light-dark cycle and fed a breeder chow diet. Daily IP injections of 200 mg/kg of compounds 22 or 79 were administered for five consecutive injections in five mice, respectively, which were followed to monitor the mortality rate. Body weights of the mice were recorded daily.
The metabolic stability of compound 22 was tested prior to the next phase of in vivo study. […] The maximum tolerated dose (MTD) study was subsequently performed to investigate its in vivo toxicity (FIGS. 4A and 4B). The second major limitation of Pyr3 is its toxicity due to its alkylating tail moiety. While replacing only the fast-metabolizing head ester group in Pyr3 with a stable amide (compound 79) improved metabolic stability, a single IP injection of compound 79 at 200 mg/kg killed all mice within 24 h.
Compound 79 is a metabolically stable version of Pyr3. Mice treated daily with compound 22 or compound 79 (n=5) for 5 consecutive days. All the mice were treated with either compound 22 or 79 at 200 mg/kg (IP). […]

TRPC3 [2] = biological target: T1, TRPC3 (Homo sapiens, UniProt Q13507); assay: whole-cell patch clamp of HEK293 cells transfected with hTRPC3, currents activated by GSK1702934A; assay type: cell-based; parameters: expressed in transfected cells; host or cells: HEK293 (CRL-1573), transient transfection, pMO vector; settings: for inhibition at 10 µM: 10 μM compound in presence of agonist GSK1702934A, HEK293 whole-cell peak current, read-out: hTRPC3 % Inhibition at 10 μM (mean ± SEM); for IC50: agonist GSK1702934A, HEK293 whole-cell patch clamp, read-out: hTRPC3 IC50 (μM, mean ± SEM)
T1 sequence (Q13507 1-921): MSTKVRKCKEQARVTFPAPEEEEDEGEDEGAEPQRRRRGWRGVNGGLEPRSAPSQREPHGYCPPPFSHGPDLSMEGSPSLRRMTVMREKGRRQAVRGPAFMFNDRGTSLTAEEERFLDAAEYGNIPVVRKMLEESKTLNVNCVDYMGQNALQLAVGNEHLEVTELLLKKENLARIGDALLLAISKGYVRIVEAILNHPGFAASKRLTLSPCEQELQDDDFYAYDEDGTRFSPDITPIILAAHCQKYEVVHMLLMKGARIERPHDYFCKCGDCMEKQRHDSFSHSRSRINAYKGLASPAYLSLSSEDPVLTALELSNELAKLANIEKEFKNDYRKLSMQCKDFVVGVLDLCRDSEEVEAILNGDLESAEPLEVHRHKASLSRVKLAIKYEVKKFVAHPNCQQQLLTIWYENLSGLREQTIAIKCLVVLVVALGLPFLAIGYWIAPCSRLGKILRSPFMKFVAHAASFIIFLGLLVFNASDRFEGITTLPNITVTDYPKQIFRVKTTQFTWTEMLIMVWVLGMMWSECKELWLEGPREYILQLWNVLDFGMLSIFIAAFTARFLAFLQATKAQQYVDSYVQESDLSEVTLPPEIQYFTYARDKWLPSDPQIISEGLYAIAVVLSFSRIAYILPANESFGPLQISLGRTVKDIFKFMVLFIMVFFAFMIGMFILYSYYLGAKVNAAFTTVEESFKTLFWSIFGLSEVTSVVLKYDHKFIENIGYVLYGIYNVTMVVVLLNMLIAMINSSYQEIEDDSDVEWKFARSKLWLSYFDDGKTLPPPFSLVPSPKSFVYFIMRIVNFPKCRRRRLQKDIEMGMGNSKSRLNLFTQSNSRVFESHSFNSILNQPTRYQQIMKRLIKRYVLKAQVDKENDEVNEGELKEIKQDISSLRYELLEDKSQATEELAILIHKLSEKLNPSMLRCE
Protocol: Human embryonic kidney 293 (HEK293; catalog number CRL-1573) cells were cultured in Dulbecco's modified Eagle's medium (Invitrogen) supplemented with 10% fetal bovine serum and 1% penicillin-streptomycin at 37° C. and 5% CO2. Constructs cloned in pMO (a pcDNA3-modified vector) were co-transfected with GFP-pMO, using Lipofectamine 2000 (Invitrogen) according to the manufacturer's instructions. Macroscopic currents in the whole-cell patch clamp configuration were recorded 18-24 h post-transfection. The extracellular solution contained 140 mM NaCl, 6 mM KCl, 2 mM MgCl2, 10 mM HEPES, and 10 mM glucose (pH 7.4). Pipettes were made of borosilicate glass (outer diameter, 1.5 mm; inner diameter, 1.10 mm; Sutter Instruments) and fire-polished with a resistance between 2.8 and 4.0 megaohms when filled with an intracellular solution that contained 140 mM CsCl, 5 mM EGTA, and 10 mM HEPES, pH 7.2. Currents were recorded with a Multiclamp 700B amplifier (Molecular Devices) using a 1-s ramp from −100 to 100 mV. Agonist and antagonists perfused were dissolved in the bath solution prior experiments: TRP channel agonists Allyl isothiocyanate (AITC; TRPA1), capsaicin (TRPV1), and menthol (TRPM8) were obtained from Sigma, GSK1016790A (TRPV4) from Cayman chemicals, and GSK1702934A (TRPC3, TRPC6 and TRPC7) from Tocris Bioscience. Antagonist Pyr3 was obtained from Tocris Bioscience, all other antagonists were synthesized in house. Data were acquired with a sampling rate of 20 kHz, low-pass filtered (10 kHz), and analyzed offline using Clampfit v10.4.2.0 (Molecular Devices).
Electrophysiology results were expressed as means±SD. Data were plotted, and sigmoidal fitting was done using OriginPro (from OriginLab), with the following Boltzmann function:
Using the patch clamp technique in the whole-cell configuration, compounds were screened by challenging hTRPC3 overexpressing HEK293 cells with GSK1702934A to activate TRPC3 and each of the synthesized compounds (10 μM) individually in the presence of the agonist.
To avoid tachyphylaxis and determine the IC50 of compound 22, each point of the dose response curve (FIG. 1B) was done individually on a cell and exchanging coverslips between cells. […] FIGS. 1D-1I show the inhibition of TRPC3-mediated currents by compound 22 and Pyr3 (serving as the reference control). […] Similar results were obtained when OAG was used as the agonist (data not shown).

TRPC3 [3] = biological target: T1, TRPC3; settings: literature ref 21; cited from earlier work

Compound | inhibition at 10 µM (TRPC3 [2]) [%] | also measured
CCOC(=O)c1cnn(-c2ccc(-n3ccc(Cl)c(Br)c3=O)cc2)c1C(F)(F)F [Compound 8, Ethyl 1-(4-(3-bromo-4-chloro-2-oxopyridin-1(2H)-yl)phenyl)-5-(trifluoromethyl)-1H-pyrazole-4-carboxylate] |  | survival of treated mice [1]: alive
CCNC(=O)c1cnn(-c2ccc(-n3ccc(Cl)c(Cl)c3=O)cc2)c1C#N [Compound 52, 5-cyano-1-(4-(3,4-dichloro-2-oxopyridin-1(2H)-yl)phenyl)-N-ethyl-1H-pyrazole-4-carboxamide] | 88.8 ± 6.37 | 
CC(=O)c1cnn(-c2ccc(-n3ccc(Cl)cc3=O)cc2)c1C(F)(F)F [Compound 66, 1-(4-(4-acetyl-5-(trifluoromethyl)-1H-pyrazol-1-yl)phenyl)-4-chloropyridin-2(1H)-one] | 60.4 ± 5.12 | 
CCCC(=O)c1cnn(-c2ccc(-n3ccc(Cl)c(Cl)c3=O)cc2)c1C(F)(F)F [Compound 69, 1-(4-(4-butyryl-5-(trifluoromethyl)-1H-pyrazol-1-yl)phenyl)-3,4-dichloropyridin-2(1H)-one] | 63.4 ± 4.83 | 
CC(=O)c1cnn(-c2ccc(-n3ccc(C)c(Cl)c3=O)cc2)c1C(F)(F)F [Compound 71, 1-(4-(4-acetyl-5-(trifluoromethyl)-1H-pyrazol-1-yl)phenyl)-3-chloro-4-methylpyridin-2(1H)-one] | 57.8 ± 8.74 | 
CC(=O)c1cnn(-c2ccc(-n3cc(Cl)c(C)c(Cl)c3=O)cc2)c1C(F)(F)F [Compound 72, 1-(4-(4-acetyl-5-(trifluoromethyl)-1H-pyrazol-1-yl)phenyl)-3,5-dichloro-4-methylpyridin-2(1H)-one] | 52.1 ± 8.41 | 
CS(=O)(=O)c1cnn(-c2ccc(-n3ccc(Cl)c(Cl)c3=O)cc2)c1C(F)(F)F [Compound 73, 3,4-Dichloro-1-(4-(4-(methylsulfonyl)-5-(trifluoromethyl)-1H-pyrazol-1-yl)phenyl)pyridine-2(1H)-one] | 72.7 ± 7.96 | 
CCCC(N)c1cnn(-c2ccc(-n3ccc(Cl)c(Cl)c3=O)cc2)c1C(F)(F)F (centres unmarked) [Compound 76, 1-(4-(4-(1-aminobutyl)-5-(trifluoromethyl)-1H-pyrazol-1-yl)phenyl)-3,4-dichloropyridin-2(1H)-one] | 33 ± 5.58 | 
CCOCc1cnn(-c2ccc(-n3ccc(Cl)c(Cl)c3=O)cc2)c1C(F)(F)F [Compound 78, 3,4-dichloro-1-(4-(4-(ethoxymethyl)-5-(trifluoromethyl)-1H-pyrazol-1-yl)phenyl)pyridin-2(1H)-one] | 68.3 ± 2.11 | 
CCNC(=O)c1cnn(-c2ccc(NC(=O)C(Cl)=C(Cl)Cl)cc2)c1C(F)(F)F [Compound 79, N-ethyl-1-(4-(2,3,3-trichloroacrylamido)phenyl)-5-(trifluoromethyl)-1H-pyrazole-4-carboxamide] | 23.2 ± 1.23 | 
O=C(Nc1ccc(-n2ncc(C(=O)O)c2C(F)(F)F)cc1)C(Cl)=C(Cl)Cl [Pyr8] |  | TRPC3 inhibition (TRPC3 [3]): little TRPC3 inhibition

Second part, led by results:

inhibition at 10 µM (TRPC3 [2]) [%] | Compound | also measured
98.08 ± 0.85 | CCNC(=O)c1cnn(-c2ccc(-n3ccc(Cl)c(Cl)c3=O)cc2)c1 [Compound 50, 1-(4-(3,4-dichloro-2-oxopyridin-1(2H)-yl)phenyl)-N-ethyl-1H-pyrazole-4-carboxamide] | IC50 (TRPC3 [2]): 2.56 ± 0.52 µM
72.3 ± 2.88 | CCNC(=O)c1cnn(-c2ccc(-n3ccc(Cl)c(Cl)c3=O)cc2)c1Cl [Compound 51, 5-chloro-1-(4-(3,4-dichloro-2-oxopyridin-1(2H)-yl)phenyl)-N-ethyl-1H-pyrazole-4-carboxamide] | 
86 ± 2.8 | CCC(=O)Nc1cnn(-c2ccc(-n3ccc(Cl)c(Cl)c3=O)cc2)c1C(F)(F)F [Compound 58, N-(1-(4-(3,4-dichloro-2-oxopyridin-1(2H)-yl)phenyl)-5-(trifluoromethyl)-1H-pyrazol-4-yl)propionamide] | 
95.9 ± 3.72 | CCNC(=O)c1ncn(-c2ccc(-n3ccc(Cl)c(Cl)c3=O)cc2)c1C(F)(F)F [Compound 59, 1-(4-(3,4-dichloro-2-oxopyridin-1(2H)-yl)phenyl)-N-ethyl-5-(trifluoromethyl)-1H-imidazole-4-carboxamide] | IC50 (TRPC3 [2]): 0.87 ± 0.17 µM
47.1 ± 8.29 | CCNC(=O)c1nnn(-c2ccc(-n3ccc(Cl)c(Cl)c3=O)cc2)c1C(F)(F)F [Compound 61, 1-(4-(3,4-dichloro-2-oxopyridin-1(2H)-yl)phenyl)-N-ethyl-5-(trifluoromethyl)-1H-1,2,3-triazole-4-carboxamide] | 
86.9 ± 3.83 | CCNC(=O)c1nn(-c2ccc(-n3ccc(Cl)c(Cl)c3=O)cc2)nc1C(F)(F)F [Compound 63, 2-(4-(3,4-dichloro-2-oxopyridin-1(2H)-yl)phenyl)-N-ethyl-5-(trifluoromethyl)-2H-1,2,3-triazole-4-carboxamide] | 
54.9 ± 4.61 | CCNC(=O)c1sc(-c2ccc(-n3ccc(Cl)c(Cl)c3=O)cc2)nc1C(F)(F)F [Compound 65, 2-(4-(3,4-dichloro-2-oxopyridin-1(2H)-yl)phenyl)-N-ethyl-4-(trifluoromethyl)thiazole-5-carboxamide] | 
88.7 ± 2.83 | CC(=O)c1cnn(-c2ccc(-n3ccc(Cl)c(Cl)c3=O)cc2)c1C(F)(F)F [Compound 67, 1-(4-(4-acetyl-5-(trifluoromethyl)-1H-pyrazol-1-yl)phenyl)-3,4-dichloropyridin-2(1H)-one] | 
97.96 ± 0.83 | CCNCc1cnn(-c2ccc(-n3ccc(Cl)c(Cl)c3=O)cc2)c1C(F)(F)F [Compound 74, 3,4-dichloro-1-(4-(4-((ethylamino)methyl)-5-(trifluoromethyl)-1H-pyrazol-1-yl)phenyl)pyridin-2(1H)-one] | IC50 (TRPC3 [2]): 0.09 ± 0.02 µM
